The values below come from PMC11475281, “A Novel Liver Cancer-Selective Histone Deacetylase Inhibitor Is Effective against Hepatocellular Carcinoma and Induces Durable Responses with Immunotherapy” (ACS Pharmacology & Translational Science, 2024).

The subject of one assay is Hep-G2 HCC cells. Briefly: Cell cycle analysis by flow cytometry. Type of assay: cell-based, human. Particulars: 48 h. Here is the method: To determine if the HCC cell selective cytotoxicity of STR-V-53 results from its perturbation of the cell cycle pattern, we evaluated the effect of STR-V-53 on the cycle progression by flow cytometry using SAHA as a control (Figure 4).
Figure 4 Effect of STR-V-53 treatment on HCC cell cycle progression. (a–c) Human Hep-G2 HCC cells were cultured until 80% confluence in a 10 cm Petri dish. The cells were serum-starved overnight before drug treatment. Then, the cells were treated with 10 mL of 0.1% DMSO medium and 0.1% DMSO solution of SAHA (5 μM) or STR-V-53 (15 μM) for 48 h. Control group (ai); SAHA (5 μM)-treated group (aii), and STR-V-53 (15 μM)-treated group (aiii and biii). (c) Quantification of the cell cycle data from two independent experiments. Bars show mean plus standard deviation; *P < 0.0332; **P < 0.0021; ***P < 0.0002; ****P < 0.00001.
MIDI 4-20% gel (Biorad, cat. 5671093) and ran at 150 V for 70 min. […] After washing with TBS-T 3x5 mins, bands were quantified using the Odyssey CLx Image system.
Hep-G2 or VERO cells were seeded (2500 to 4,000 counts/well) into 96-well plates, in which each well contains 100 µL media. […] After 2.5-4 h incubation, the plates were read using a multiplate reader at 490 nm. […]
Then cells were treated with another 500 µL of 100 ug/mL PI staining at room temperature for 30 min. The cell cycle was analyzed with BD FACS Aria Illu analyzer, and the data were […]
In general terms: A flow cytometer gives signals particle by particle.

For the next assay, the system named is Hep-G2 cells. The assay is described as follows: Immunoblotting of PD-L1 and PD-1 expression. In kind it is cell-based, human. The conditions noted are these: 24 h, SAHA 5 and 10 μM, STR-V-53 10 and 20 μM. Here is the method:
Figure 3 Effects of STR-V-53 on intracellular markers of HDAC inhibition, antitumor immune response, and apoptosis. (a) STR-V-53 upregulates the levels of acetylated H4 and tubulin in Hep-G2 cells. Hep-G2 cells were treated with DMSO or 0.1% DMSO solution of SAHA (1.25 μM) and STR-V-53 (1.25 μM, 2.5 μM). Cells were treated for 5 h before lysis. Data are from two independent experiments. (b) STR-V-53 upregulates PD-L1 and downregulates PD-1 expressions in Hep-G2 cells. Cells were treated with DMSO or 0.1% DMSO solution of SAHA (5 μM and 10 μM) and STR-V-53 (10 and 20 μM) for 24 h. (c) STR-V-53 and SAHA caused upregulation of the levels of CD54 in the Hep-G2 cell line. Cells were treated with DMSO or 0.1% DMSO solution of SAHA (5 and 10 μM) and STR-V-53 (5, 10, and 20 μM) for 24 h. […] Cells were treated with DMSO or 0.1% DMSO solution of SAHA (5 μM) and STR-V-53 (10 and 20 μM).
One of the consequences of histone deacetylase inhibition is the alteration of tumor immunogenicity in favor of enhanced antitumor immune responses.[28],[29] Specifically, HDACi robustly upregulates PD-L1 in human and murine cell lines and patient tumors.[30],[31] To investigate the effects of our glycosylated HDACi on immune checkpoint molecules, we used immunoblotting to probe for the expression levels of PD-L1 and PD-1 in Hep-G2 cells incubated with lead compound STR-V-53 for 24 h. We used SAHA and DMSO as positive and negative controls, respectively.
(In general: In western blotting, separated proteins are transferred to a membrane and probed.)

With `O=C(CCCCCCn1cc(-c2ccc(O[C@H]3O[C@H](CO)[C@@H](O)[C@H](O)[C@H]3O)cc2)nn1)NO` [STR-V-53], in the assay with Hep-G2 HCC cells (15 μM), the Cell cycle progression entry is “significant S phase arrest”. Further, in the assay on Hep-G2 cells, the PD-1 expression level result is “downregulate” and the PD-L1 expression level entry is recorded as “upregulate”.

For `O=C(CCCCCCC(=O)Nc1ccccc1)NO` [SAHA, vorinostat, reference compound], the Cell cycle progression entry with Hep-G2 HCC cells (5 μM) was “significant S phase arrest”. In addition, in the assay with Hep-G2 cells, the PD-1 expression level entry is given as “downregulate” and the PD-L1 expression level result is listed as “upregulate”.
